Experimental data taken from publication PMC10669340, “Bioactive Compounds from an Endophytic Pezicula sp. Showing Antagonistic Effects against the Ash Dieback Pathogen” (Biomolecules, 2023).
Converted amounts (≈) assume the structure as drawn. Read-outs that look alike come from different tables or passages of the source.

What was measured:
[1] = system: panel of mammalian cell lines; experiment: MTT cytotoxicity assay, panel (summary statements); type: cell-based; details: 4–6 only KB3.1 and L929
Procedure: (§1) The in vitro cytotoxicity assay was performed using the MTT (3-(4,5-dimethylthiayol-2-yl)-2,5-diphenyltetrazolium bromide) test in 96-well microtiter plates as previously described.

Bacillus subtilis DSM 10 = experiment: Antimicrobial serial dilution assay (MIC); type: cell-based; details: for Minimum inhibitory concentration (MIC): Bacillus subtilis DSM 10, n.i.: no inhibition
Procedure: (§2) The antimicrobial activity (minimum inhibitory concentration, MIC) of the compounds was determined against Acinetobacter baumannii DSM 30008, Bacillus subtilis DSM 10, Chromobacterium violaceum DSM 30191, Escherichia coli DSM 1116, Mycobacterium smegmatis ATCC 700084, Pseudomonas aeruginosa PA14, Staphylococcus aureus DSM 346, Candida albicans DSM1665, Mucor hiemalis DSM 2656, Pichia anomala DSM 6766, Rhodotorula glutinis DSM 10134 and Schizosaccharomyces pombe DSM 70572 in a serial dilution assay as previously described.

[2] = system: Chromobacterium violaceum DSM 30191; experiment: Antimicrobial serial dilution assay (MIC); type: cell-based; details: n.i.: no inhibition
Procedure: as §2

Pichia anomala DSM 6766 = experiment: Antimicrobial serial dilution assay (MIC); type: cell-based; details: for Minimum inhibitory concentration (MIC): Pichia anomala DSM 6766, n.i.: no inhibition
Procedure: as §2

[3] = system: Schizosaccharomyces pombe DSM 70572; experiment: Antimicrobial serial dilution assay (MIC); type: cell-based; details: for Minimum inhibitory concentration (MIC): Schizosaccharomyces pombe DSM 70572, n.i.: no inhibition
Procedure: as §2

[4] = system: Escherichia coli DSM 1116; experiment: Antimicrobial serial dilution assay (MIC); type: cell-based; details: n.i.: no inhibition
Procedure: as §2

[5] = system: Staphylococcus aureus DSM 346; experiment: Antimicrobial serial dilution assay (MIC); type: cell-based; details: for Minimum inhibitory concentration (MIC): Staphylococcus aureus DSM 346, n.i.: no inhibition
Procedure: as §2

[6] = system: Pseudomonas aeruginosa PA14; experiment: Antimicrobial serial dilution assay (MIC); type: cell-based; details: n.i.: no inhibition
Procedure: as §2

Candida albicans DSM1665 = experiment: Antimicrobial serial dilution assay (MIC); type: cell-based; details: n.i.: no inhibition
Procedure: as §2

[7] = system: Mycobacterium smegmatis ATCC 700084; experiment: Antimicrobial serial dilution assay (MIC); type: cell-based; details: for Minimum inhibitory concentration (MIC): Mycobacterium smegmatis ATCC 700084, n.i.: no inhibition
Procedure: as §2

Mucor hiemalis DSM 2656 = experiment: Antimicrobial serial dilution assay (MIC); type: cell-based; details: for Minimum inhibitory concentration (MIC): Mucor hiemalis DSM 2656, n.i.: no inhibition
Procedure: as §2

[8] = system: Rhodotorula glutinis DSM 10134; experiment: Antimicrobial serial dilution assay (MIC); type: cell-based; details: for Minimum inhibitory concentration (MIC): Rhodotorula glutinis DSM 10134, n.i.: no inhibition
Procedure: as §2

[9] = system: Acinetobacter baumannii DSM 30008; experiment: Antimicrobial serial dilution assay (MIC); type: cell-based; details: n.i.: no inhibition
Procedure: as §2

[10] = system: panel of bacteria and fungi; experiment: Antimicrobial serial dilution assay, whole panel (summary statements); type: cell-based
Procedure: as §2

MTT cytotoxicity assay = type: cell-based; details: read-out: Cytotoxic activity (IC50)
Procedure: as §1

[11] = system: Fraxineus excelsior leaves; experiment: Phytotoxicity leaf puncture assay; details: 1 mg/mL in MeOH, 20 µL on punctured leaves, evaluated after 3 days
Procedure: The phytotoxicity of the compounds 1, 3 and 4 was assessed using the leaf puncture assay as described previously. The other compounds could not be evaluated because of the limited quantity.
For this assay, similar leaves of the same Fraxineus excelsior plant were chosen onto which the compounds were applied. The pure compounds were dissolved at 1 mg/mL in MeOH. Then, 20 µL of test samples were applied to the adaxial sides of leaves that had previously been needle punctured. A total of 20 µL of MeOH in distilled water (4%) was applied on the leaves as the negative control and 1 mg/mL macrocidin A [23] as the positive control. Each treatment was repeated three times and then the leaves were placed on moistened paper filters in petri dishes (diameter 9 cm) to prevent the droplets from drying. The experiment was run in duplicate. Leaves were evaluated for the symptoms after 3 days.

[12] = system: H. fraxineus (isolate RH02-T6-B4-2); experiment: Agar disc diffusion assay; type: cell-based, Hymenoscyphus fraxineus; details: for Antifungal activity, inhibition diameter: 6 mm disc, 7 days, 21 °C
Procedure: The antifungal activity of the isolated compounds against H. fraxineus was assessed by the disc diffusion method using 9 cm diameter petri dishes as previously described […] Three sterile filter paper discs per plate were gently placed on dried potato–dextrose agar. The fungicide nystatin was applied as the positive control (20 and 50 µg/paper disc) and methanol as the negative control (10 µL/paper disc). The test plates were incubated at 21 °C for 7 days, the inhibition diameters were measured, and the activity was evaluated compared to nystatin.
Figure S44: Agar disc (6 mm diam.) diffusion assay of compound CJ-17,572 (1) against H. fraxineus RH02-T6-B4-2, grown in 9-cm petri dishes on agar-based PD
medium with H. fraxineus, N - positive control nystatin, M - negative control methanol, CJ – 1.
Table S1. Antifungal activity of the compounds 1-6. n.i.: no inhibition, n.t.: not tested.
Compounds Amount ( µg/paper disc)
Peziculastatin n.t. n.i. 8 mm
Mycorrhizin A 19 mm 31 mm n.t.
Cryptosporioptide A n.t. n.i. n.i.
Cryptosporioptide B n.t. n.i. 8 mm
Cryptosporioptide C n.t. n.i. n.i.
Nystatin 21 mm 24 mm n.t.

[13] = system: Candida albicans DSM 11225 biofilm; experiment: Biofilm assay, inhibition of biofilm formation; type: cell-based; details: (/) no activity
Procedure: The stock of fungal pathogen Candida albicans DSM 11225 from −20 °C was cultured in 25 mL YPD (Yeast extract Peptone Dextrose; dextrose 20 g/L, peptone 20 g/L, yeast extract 10 g/L) medium in a 250 mL flask at 30 °C with shaking 100 rpm for 18 h. Turbidity of the broth was measured and diluted to match the turbidity of a 0.05 McFarland standard in RPMI 1640 medium (Gibco, New York, NY, USA, Thermo Fisher Scientific). Afterwards, 150 μL of the fungal dispersion was added into each well of a 96-well microtiter plate (Falcon no. 351172, Thermo Fisher Scientific) and further incubated for 90 min. The supernatant was removed, and the plate was washed once by using PBS buffer. Compounds were serially diluted in 150 μL in fresh medium to concentrations of 250–2 μg/mL. Staining and analysis were conducted as previously described. Methanol (2.5%) and farnesol (250–2 μg/mL) were used as solvent and positive controls. Error bars indicate SD with duplicates in two biological repeats.

[14] = system: Staphylococcus aureus DSM 1104 preformed biofilm; experiment: Biofilm assay, dispersal of preformed biofilm; type: cell-based; parameters: Antibiofilm activity, preformed S. aureus: unit not given here; details: (/) no activity
Procedure: Staphylococcus aureus DSM 1104 from −20 °C stock was cultured in 25 mL CASO (Casein–Peptone Soymeal–Peptone; peptone from casein 15 g/L, peptone from soy flour 5 g/L, NaCl 5 g/L, pH 7.3) medium at 37 °C at 100 rpm in 250 mL for 20 h. The precultured suspension of S. aureus was adjusted so that its OD600 matched the turbidity of a 0.001 McFarland standard. S. aureus was incubated in 96-well tissue microtiter plates (TPP tissue culture ref.no 92196, Switzerland) for 24 h at 150 rpm in […] CASO medium with 4% glucose broth. The supernatant was removed from the wells and 150 μL of the respective media (fresh) was added to the wells, together with the serially diluted compounds (250–2 μg/mL). The plates were incubated for a further 24 h at 37 °C. Staining of the biofilms was carried out as described previously. Standard deviation (SD) of two repeats with duplicates each were 10% or less. Methanol (2.5%) and microporenic acid A (250–2 μg/mL) were used as solvent and positive controls. Error bars indicate SD with duplicates in two biological repeats.

[15] = 50 µg/paper disc, n.i.: no inhibition

SMILES	cytotoxicity against the tested cell lines (in words) [1]	Minimum inhibitory concentration (MIC) [2]	Minimum inhibitory concentration (MIC) [4]	Minimum inhibitory concentration (MIC) [6]	Minimum inhibitory concentration (MIC) (Candida albicans DSM1665)	Minimum inhibitory concentration (MIC) [9]	antimicrobial activity against the tested microorganisms (in words) [10]	phytotoxic activity, leaf puncture assay [11]	Antifungal activity, inhibition diameter [12, 15]	Minimum inhibitory concentration (MIC) (Bacillus subtilis DSM 10)	Minimum inhibitory concentration (MIC) (Pichia anomala DSM 6766)	Minimum inhibitory concentration (MIC) [3]	Minimum inhibitory concentration (MIC) [5]	Minimum inhibitory concentration (MIC) [7]	Minimum inhibitory concentration (MIC) (Mucor hiemalis DSM 2656)	Minimum inhibitory concentration (MIC) [8]	other results
C[C@H]1CC[C@H]2[C@@H](C=C[C@H](C)[C@]2(C)C(=O)C2=C(O)[C@H]([C@@H](C)O)N(C)C2=O)C1 [Compound 1, CJ-17,572]	active against all the tested cell lines	n.i.	n.i.	n.i.	n.i.	n.i.	moderate to weak antifungal activity	brownish lesions	11 mm	–	–	–	–	–	–	–	MIC (Bacillus subtilis DSM 10; Bacillus subtilis, DSM10, read-out: Minimum inhibitory concentration (MIC)): 8.3 µg/mL (≈ 23 µM); MIC (Pichia anomala DSM 6766; Hansenula anomala, DSM6766, read-out: Minimum inhibitory concentration (MIC)): 33.3 µg/mL (≈ 92.1 µM); MIC ([3]; Schizosaccharomyces pombe, DSM70572, read-out: Minimum inhibitory concentration (MIC)): 33.3 µg/mL (≈ 92.1 µM); MIC ([5]; Staphylococcus aureus, DSM346, read-out: Minimum inhibitory concentration (MIC)): 8.3 µg/mL (≈ 23 µM); MIC ([7]; Mycolicibacterium smegmatis, ATCC700084, read-out: Minimum inhibitory concentration (MIC)): 66.6 µg/mL (≈ 184 µM); MIC (Mucor hiemalis DSM 2656; Mucor hiemalis, DSM2656, read-out: Minimum inhibitory concentration (MIC)): 4.2 µg/mL (≈ 11.6 µM); MIC ([8]; Rhodotorula glutinis, DSM10134, read-out: Minimum inhibitory concentration (MIC)): 66.6 µg/mL (≈ 184 µM); IC50 (MTT cytotoxicity assay; human, A431): 23 µM; IC50 (MTT cytotoxicity assay; human, A549): 4.4 µM; IC50 (MTT cytotoxicity assay; human, KB3.1, n.c.: no cytotoxicity): 2.5 µM; IC50 (MTT cytotoxicity assay; human, MCF-7): 2.7 µM; IC50 (MTT cytotoxicity assay; human, PC-3): 3.3 µM; IC50 (MTT cytotoxicity assay; human, SKOV-3): 3.3 µM; IC50 (MTT cytotoxicity assay; mouse, L929, n.c.: no cytotoxicity): 5 µM; Antifungal activity, inhibition diameter ([12]; 20 µg/paper disc): 9 mm; inhibitory effects against H. fraxineus (in words) ([12]; 50 µg (1) and 20 µg (3) test substance per paper disc): strong inhibitory effects
CC12Oc3ccc(-c4ccc5c(c4O)C(=O)C4=C(O)C6OC6(C)C(OC(=O)CC(=O)O)C4(C)O5)c(O)c3C(=O)C1=C(O)C1OC1(C)C2OC(=O)CC(=O)O (centres unmarked) [Compound 4, Cryptosporioptide A]	–	n.i.	n.i.	n.i.	n.i.	n.i.	–	brownish lesions	n.i.	n.i.	n.i.	n.i.	n.i.	n.i.	n.i.	n.i.	Antibiofilm activity, C. albicans ([13]; 31.3 µg/mL): 39; Antibiofilm activity, C. albicans ([13]; 62.5 µg/mL): 71; Antibiofilm activity, C. albicans ([13]; 125 µg/mL): 71; Antibiofilm activity, C. albicans ([13]; 250 µg/mL): 81; Antibiofilm activity, preformed S. aureus ([14]; 62.5 µg/mL): 70; Antibiofilm activity, preformed S. aureus ([14]; 125 µg/mL): 73; Antibiofilm activity, preformed S. aureus ([14]; 250 µg/mL): 80; Antifungal activity, inhibition diameter ([12]; 100 µg/paper disc, n.i.: no inhibition): n.i.
COC1=C(C(=O)[C@@]2(C)[C@@H](C)C=C[C@H]3C[C@@H](C)CC[C@@H]32)C(=O)[C@H]([C@@H](C)O)N1C [Compound 8, 2′-methyl-CJ-17,572]	active against all the tested cell lines	n.i.	n.i.	n.i.	n.i.	n.i.	did not show any activity	–	–	n.i.	n.i.	n.i.	n.i.	n.i.	n.i.	n.i.	IC50 (MTT cytotoxicity assay; human, A431 squamous cell carcinoma cells): 20 µM; IC50 (MTT cytotoxicity assay; human, A549 lung carcinoma cells): 35 µM; IC50 (MTT cytotoxicity assay; human, KB3.1 endocervical adenocarcinoma cells, n.c.: no cytotoxicity): 15 µM; IC50 (MTT cytotoxicity assay; human, MCF-7 breast adenocarcinoma cells): 1.8 µM; IC50 (MTT cytotoxicity assay; human, PC-3 prostate cancer cells): 18 µM; IC50 (MTT cytotoxicity assay; human, SKOV-3 ovarian carcinoma cells): 21 µM; IC50 (MTT cytotoxicity assay; mouse, L929 fibroblast cells, n.c.: no cytotoxicity): 43 µM
